Literature values in article PMC6272651, “Novel Orally Active Analgesic and Anti-Inflammatory Cyclohexyl-N-Acylhydrazone Derivatives” (Molecules, 2015).

Target: T1, adenosine receptor, subtype A2A (Rattus norvegicus, UniProt P30543)
T1 construct: gene Adora2a
Test: radioligand displacement of [3H]CGS21680 ([…]) from rat A2A receptors
Settings: read-out: Binding A2a / % of inhibition ^a

T1 sequence (P30543 whole entry): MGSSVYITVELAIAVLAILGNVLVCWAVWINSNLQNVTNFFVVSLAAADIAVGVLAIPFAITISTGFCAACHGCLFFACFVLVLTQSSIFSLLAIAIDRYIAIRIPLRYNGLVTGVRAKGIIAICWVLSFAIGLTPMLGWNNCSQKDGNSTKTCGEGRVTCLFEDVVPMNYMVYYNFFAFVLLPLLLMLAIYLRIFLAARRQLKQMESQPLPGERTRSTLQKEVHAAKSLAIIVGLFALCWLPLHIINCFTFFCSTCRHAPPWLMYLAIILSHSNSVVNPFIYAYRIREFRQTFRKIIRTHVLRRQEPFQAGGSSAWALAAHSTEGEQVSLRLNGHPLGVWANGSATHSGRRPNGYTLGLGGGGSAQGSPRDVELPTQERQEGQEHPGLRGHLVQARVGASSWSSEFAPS

In the case of `O=C(N/N=C/c1cccs1)c1ccc2c(c1)OCO2` [compound 8, (E)-N'-((thiophen-2-yl)methylene)benzo[d][1,3]dioxole-5-carbohydrazide], the Ki is listed as 8.2 µM.
